Like-named read-outs stand apart in the source and are kept apart here. Bridge positions count the residues as written; N and C are the ends. Peptide text beside a SMILES is read from it. * marks the point of attachment. CH3O(CH2CH2O)11CH2CH2CO = COCCOCCOCCOCCOCCOCCOCCOCCOCCOCCOCCOCCC(=O)*
How the values were obtained:
Recombinant human NEP = Recombinant human NEP (Homo sapiens, UniProt P08473); experiment: In vitro neutral endopeptidase (NEP) cleavage assay; details: for NEP Cleavage (t1/2, min): pH 7
Recombinant human NEP, sequence (P08473 whole entry): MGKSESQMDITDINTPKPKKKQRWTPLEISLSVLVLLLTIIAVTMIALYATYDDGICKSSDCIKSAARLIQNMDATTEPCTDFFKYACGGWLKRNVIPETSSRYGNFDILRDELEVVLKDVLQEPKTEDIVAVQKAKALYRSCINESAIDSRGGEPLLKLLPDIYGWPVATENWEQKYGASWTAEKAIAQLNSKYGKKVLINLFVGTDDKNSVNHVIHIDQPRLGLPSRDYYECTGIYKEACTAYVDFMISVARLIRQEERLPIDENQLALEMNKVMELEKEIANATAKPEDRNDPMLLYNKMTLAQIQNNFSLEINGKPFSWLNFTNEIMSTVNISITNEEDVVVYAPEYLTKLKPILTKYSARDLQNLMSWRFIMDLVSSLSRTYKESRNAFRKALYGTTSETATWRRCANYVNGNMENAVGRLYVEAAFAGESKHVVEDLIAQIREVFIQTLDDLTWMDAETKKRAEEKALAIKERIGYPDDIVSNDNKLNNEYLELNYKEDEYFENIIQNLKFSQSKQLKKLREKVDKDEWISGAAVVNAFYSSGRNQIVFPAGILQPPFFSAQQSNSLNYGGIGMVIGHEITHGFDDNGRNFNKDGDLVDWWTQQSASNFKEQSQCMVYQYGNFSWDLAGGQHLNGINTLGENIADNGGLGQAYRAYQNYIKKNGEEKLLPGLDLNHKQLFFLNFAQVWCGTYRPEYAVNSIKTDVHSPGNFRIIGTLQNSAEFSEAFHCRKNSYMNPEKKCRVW
Procedure, shortened: (§1)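 Recombinant human NEP (1 ug/mL final) incubated with 100 uM CNP variant in 0.1 M Tris, pH 7, at 37° C for various times, then quenched with EDTA (10 mM final) and heat. Samples reduced and analysed by HPLC and mass spectrometry. Half-life derived from loss of intact variant over time.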

[1] = molecular target: neutral endopeptidase (NEP) (Homo sapiens, UniProt P08473); experiment: as above; details: human, pH 7
neutral endopeptidase (NEP), sequence (P08473 whole entry): as above
Procedure, shortened: as §1

NPR-B = molecular target: T1, NPR-B (Mus musculus, UniProt Q6VVW5); experiment: Stimulation of cGMP production in NIH3T3 cells; assay type: cell-based, Murine; details: for cGMP response relative to 1 uM CNP22 (%) at 0.01 µM: read-out: cGMP Response rel. to 1 uM CNP22, 10 nM; for cGMP response relative to 1 uM CNP22 (%) at 1 µM: read-out: cGMP Response rel. to 1 uM CNP22, 1 uM
T1 construct: Murine NIH3T3 cells express endogenously the CNP signaling receptor, NPR-B; endogenous in cells; host or cells: NIH3T3 (murine fibroblasts)
T1 sequence (Q6VVW5 17-1047): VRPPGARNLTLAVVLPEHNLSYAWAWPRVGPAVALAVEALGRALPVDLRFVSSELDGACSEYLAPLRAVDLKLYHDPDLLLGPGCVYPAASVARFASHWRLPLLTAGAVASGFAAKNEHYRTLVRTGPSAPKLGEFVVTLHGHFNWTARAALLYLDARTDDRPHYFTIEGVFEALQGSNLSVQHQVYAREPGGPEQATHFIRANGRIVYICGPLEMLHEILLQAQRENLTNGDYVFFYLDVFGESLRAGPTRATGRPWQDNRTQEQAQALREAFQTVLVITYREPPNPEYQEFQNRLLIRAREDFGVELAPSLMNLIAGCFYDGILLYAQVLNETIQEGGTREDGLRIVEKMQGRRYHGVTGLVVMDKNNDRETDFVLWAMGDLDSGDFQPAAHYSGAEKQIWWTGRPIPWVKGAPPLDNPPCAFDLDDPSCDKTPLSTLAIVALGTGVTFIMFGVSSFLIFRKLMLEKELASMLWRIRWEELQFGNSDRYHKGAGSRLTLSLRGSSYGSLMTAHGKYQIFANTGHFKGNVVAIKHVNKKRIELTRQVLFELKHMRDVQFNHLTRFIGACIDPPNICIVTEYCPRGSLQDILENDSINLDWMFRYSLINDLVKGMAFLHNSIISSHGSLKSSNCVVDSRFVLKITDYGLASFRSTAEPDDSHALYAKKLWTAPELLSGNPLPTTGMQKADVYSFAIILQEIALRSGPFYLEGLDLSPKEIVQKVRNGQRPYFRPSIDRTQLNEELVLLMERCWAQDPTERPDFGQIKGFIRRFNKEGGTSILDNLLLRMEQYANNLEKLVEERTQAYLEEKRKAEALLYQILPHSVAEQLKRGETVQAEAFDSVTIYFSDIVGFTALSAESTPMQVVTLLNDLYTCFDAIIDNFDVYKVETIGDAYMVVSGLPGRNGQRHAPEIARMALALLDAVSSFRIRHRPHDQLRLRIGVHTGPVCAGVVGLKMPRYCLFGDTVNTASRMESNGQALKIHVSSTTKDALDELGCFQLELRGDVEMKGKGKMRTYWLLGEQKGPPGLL

[2] = NIH3T3 cells, 10 nM natriuretic peptide, normalized to cell number and cGMP production with 1 uM wtCNP22
[3] = NIH3T3 cells, 1 uM natriuretic peptide, normalized to cell number and cGMP production with 1 uM wtCNP22

CC[C@H](C)[C@@H]1NC(=O)[C@H](CCCNC(=N)N)NC(=O)[C@H](CC(=O)O)NC(=O)[C@H](CC(C)C)NC(=O)[C@H](CCCCN)NC(=O)[C@H](CC(C)C)NC(=O)CNC(=O)[C@H](Cc2ccccc2)NC(=O)[C@@H](NC(=O)CNC(=O)[C@H](CCCCN)NC(=O)[C@H](CO)NC(=O)[C@H](CC(C)C)NC(=O)CNC(=O)CCOCCOCCOCCOCCOCCOCCOCCOCCOCCOCCOCCOCCOCCOCCOCCOCCOCCOCCOCCOCCOCCOCCOCCOC)CSSC[C@@H](C(=O)O)NC(=O)CNC(=O)[C@H](CC(C)C)NC(=O)CNC(=O)[C@H](CO)NC(=O)[C@H](CCSC)NC(=O)[C@H](CO)NC(=O)CNC1=O [PEO24-CNP22]
resistance to NEP cleavage/degradation (in words) (Recombinant human NEP; in vitro NEP cleavage assay, assay period 160 minutes): resistant to NEP degradation over the assay period of 160 minutes
half-life at 100 uM [1]: > 2.67 h
cGMP response relative to 1 uM CNP22 (%) at 0.01 µM (NPR-B; [2]): 8 ± 5%
cGMP response relative to 1 uM CNP22 (%) at 1 µM (NPR-B; [3]): 46 ± 10%

CC[C@H](C)[C@@H]1NC(=O)[C@H](CCCNC(=N)N)NC(=O)[C@H](CC(=O)O)NC(=O)[C@H](CC(C)C)NC(=O)[C@H](CCCCN)NC(=O)[C@H](CC(C)C)NC(=O)CNC(=O)[C@H](Cc2ccccc2)NC(=O)[C@@H](NC(=O)CNC(=O)[C@H](CCCCN)NC(=O)[C@H](CO)NC(=O)[C@H](CC(C)C)NC(=O)CNC(=O)[C@H](CCCNC(=N)N)NC(=O)[C@H](C)NC(=O)[C@H](CC(N)=O)NC(=O)[C@@H]2CCCN2C(=O)[C@H](Cc2c[nH]cn2)NC(=O)[C@H](CCC(=O)O)NC(=O)[C@H](CCC(N)=O)NC(=O)[C@H](CC(C)C)NC(=O)[C@H](CC(C)C)NC(=O)[C@H](CCCNC(=N)N)NC(=O)[C@H](C)NC(=O)[C@H](Cc2c[nH]c3ccccc23)NC(=O)[C@H](C)NC(=O)[C@H](C)N)CSSC[C@@H](C(=O)O)NC(=O)CNC(=O)[C@H](CC(C)C)NC(=O)CNC(=O)[C@H](CO)NC(=O)[C@H](CCSC)NC(=O)[C@H](CO)NC(=O)CNC1=O [CB] (H-AAWARLLQEHPNARGLSKGCFGLKLDRIGSMSGLGC-OH; disulfide 20-36 (inferred); N-terminus and C-terminus assumed)
resistance to NEP cleavage/degradation (in words) (Recombinant human NEP): much more resistant to NEP cleavage than CNP22
cGMP response relative to 1 uM CNP22 (%) at 0.01 µM (NPR-B; [2]): 36%
cGMP response relative to 1 uM CNP22 (%) at 1 µM (NPR-B; [3]): 84%

CC[C@H](C)[C@@H]1NC(=O)[C@H](CCCNC(=N)N)NC(=O)[C@H](CC(=O)O)NC(=O)[C@H](CC(C)C)NC(=O)[C@H](CCCCN)NC(=O)[C@H](CC(C)C)NC(=O)CNC(=O)[C@H](Cc2ccccc2)NC(=O)[C@@H](NC(=O)CNC(=O)[C@H](CCCCN)NC(=O)[C@H](CO)NC(=O)[C@H](CC(C)C)NC(=O)CNC(=O)[C@H](C)NC(=O)[C@H](CC(N)=O)NC(=O)[C@@H]2CCCN2C(=O)[C@H](Cc2c[nH]cn2)NC(=O)[C@H](CCC(=O)O)NC(=O)[C@H](CCC(N)=O)NC(=O)[C@H](CC(C)C)NC(=O)[C@H](CC(C)C)NC(=O)[C@H](CCCNC(=N)N)NC(=O)[C@H](C)NC(=O)[C@H](Cc2c[nH]c3ccccc23)NC(=O)[C@H](C)NC(=O)[C@H](C)N)CSSC[C@@H](C(=O)O)NC(=O)CNC(=O)[C@H](CC(C)C)NC(=O)CNC(=O)[C@H](CO)NC(=O)[C@H](CCSC)NC(=O)[C@H](CO)NC(=O)CNC1=O [CA] (H-AAWARLLQEHPNAGLSKGCFGLKLDRIGSMSGLGC-OH; disulfide 19-35 (inferred); N-terminus and C-terminus assumed)
resistance to NEP cleavage/degradation (in words) (Recombinant human NEP): much more resistant to NEP cleavage than CNP22
cGMP response relative to 1 uM CNP22 (%) at 0.01 µM (NPR-B; [2]): 24%
cGMP response relative to 1 uM CNP22 (%) at 1 µM (NPR-B; [3]): 76%

PEG20K-CNP22: CNP22 conjugated at the N-terminus to polydispersed PEG20K
NEP Cleavage (t1/2, min) (Recombinant human NEP): >>160 min
cGMP Response rel. to 1 uM CNP22, 10 nM (NPR-B; [2]): 0
cGMP Response rel. to 1 uM CNP22, 1 uM (NPR-B; [3]): 15

CC[C@H](C)[C@@H]1NC(=O)[C@H](CCCNC(=N)N)NC(=O)[C@H](CC(=O)O)NC(=O)[C@H](CC(C)C)NC(=O)[C@H](CCCCN)NC(=O)[C@H](CC(C)C)NC(=O)CNC(=O)[C@H](Cc2ccccc2)NC(=O)[C@@H](NC(=O)CNC(=O)[C@H](CO)NC(=O)CNC(=O)[C@H](CCC(N)=O)NC(=O)[C@@H](NC(=O)[C@H](CCSC)NC(=O)[C@H](CCCCN)NC(=O)[C@@H]2CCCN2C(=O)[C@@H](N)CO)C(C)C)CSSC[C@@H](C(=O)N[C@@H](CCCCN)C(=O)N[C@H](C(=O)N[C@@H](CC(C)C)C(=O)N[C@@H](CCCNC(=N)N)C(=O)N[C@@H](CCCNC(=N)N)C(=O)N[C@@H](Cc2c[nH]cn2)C(=O)O)C(C)C)NC(=O)CNC(=O)[C@H](CC(C)C)NC(=O)CNC(=O)[C@H](CO)NC(=O)[C@H](CCSC)NC(=O)[C@H](CO)NC(=O)CNC1=O [CD] (H-SPKMVQGSGCFGLKLDRIGSMSGLGCKVLRRH-OH; disulfide 10-26 (inferred); N-terminus and C-terminus assumed)
resistance to NEP cleavage/degradation (in words) (Recombinant human NEP): much more resistant to NEP cleavage than CNP22
cGMP response relative to 1 uM CNP22 (%) at 0.01 µM (NPR-B; [2]): 25%
cGMP response relative to 1 uM CNP22 (%) at 1 µM (NPR-B; [3]): 102%

PEG1K-CNP22: CNP22 conjugated at the N-terminus to polydispersed PEG1K
NEP Cleavage (t1/2, min) (Recombinant human NEP): >>160 min
cGMP Response rel. to 1 uM CNP22, 10 nM (NPR-B; [2]): 15 ± 3
cGMP Response rel. to 1 uM CNP22, 1 uM (NPR-B; [3]): 68 ± 17

CC[C@H](C)[C@@H]1NC(=O)[C@H](CCCNC(=N)N)NC(=O)[C@H](CC(=O)O)NC(=O)[C@H](CC(C)C)NC(=O)[C@H](CCCCN)NC(=O)[C@H](CC(C)C)NC(=O)CNC(=O)[C@H](Cc2ccccc2)N(C)C(=O)[C@@H](NC(=O)CNC(=O)[C@H](CCCCN)NC(=O)[C@H](CO)NC(=O)[C@H](CC(C)C)NC(=O)CN)CSSC[C@@H](C(=O)O)NC(=O)CNC(=O)[C@H](CC(C)C)NC(=O)CNC(=O)[C@H](CO)NC(=O)[C@H](CCSC)NC(=O)[C@H](CO)NC(=O)CNC1=O [B]
resistance to cleavage at the Cys6-Phe7 bond relative to wtCNP22 (Recombinant human NEP; data not shown): resistance or improved resistance
resistance to cleavage of the Gly8-Leu9 bond (Recombinant human NEP; in the presence of 1 ug/mL NEP, data not shown): exhibited resistance
cGMP response relative to 1 uM CNP22 (%) at 0.01 µM (NPR-B; NIH3T3, […]): 2%
cGMP response relative to 1 uM CNP22 (%) at 1 µM (NPR-B; NIH3T3, […]): 38%

CC[C@H](C)[C@@H]1NC(=O)[C@H](CCCNC(=N)N)NC(=O)[C@H](CC(=O)O)NC(=O)[C@H](CC(C)C)NC(=O)[C@H](CCCCN)NC(=O)[C@H](CC(C)C)NC(=O)CNC(=O)[C@H](Cc2ccccc2)NC(=O)[C@@H](NC(=O)CNC(=O)[C@H](CCCNC(=N)N)NC(=O)[C@H](CO)NC(=O)[C@H](CC(C)C)NC(=O)CNC(=O)[C@H](CCCNC(=N)N)NC(=O)[C@@H]2CCCN2C(=O)[C@H](CC(N)=O)NC(=O)[C@H](C)NC(=O)CNC(=O)CCOCCOCCOCCOCCOCCOCCOCCOCCOCCOCCOCCOC)CSSC[C@@H](C(=O)O)NC(=O)CNC(=O)[C@H](CC(C)C)NC(=O)CNC(=O)[C@H](CO)NC(=O)[C@H](CCSC)NC(=O)[C@H](CO)NC(=O)CNC1=O [PEO12-GANPR-CNP22, K4R] ({CH3O(CH2CH2O)11CH2CH2CO}-GANPRGLSRGCFGLKLDRIGSMSGLGC-OH; disulfide 11-27; C-terminus assumed)
resistance to NEP cleavage/degradation (in words) (Recombinant human NEP): same half-life as wtCNP22
half-life at 100 uM ([1]; recombinant human neutral endopeptidase (NEP)): 1.33 h

Source: patent US8377884B2, “Variants of C-type natriuretic peptides” (Biomarin Pharmaceutical Inc., priority 2007, dated 2013)
